In the supplement of paper PMC4862054 one finds normalised viability data, which are given here for 18 molecules.

Common to all, as to assay: normalised viability (% of control), CellTiter-Blue; higher = more viable cells (about 100 = DMSO control)
Common to all, as to conditions: incubation time: 72 h

For experiment [1], the system named is DU-4475. The method, then: (§1)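 DSRT, CellTiter-Blue viability, 72 h incubation. Signal is normalised to DMSO and benzethonium chloride controls. Value is the normalised response at dose 8.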
In experiment [2] the test system is HDQ-P1. How it is done: as §1
The test system of experiment [3] is MDA-MB-453. The method, then: as §1
For experiment [4], the system named is CAL-51. How it is done: as §1
Experiment [5] deals with CAL-148. The method, then:
as §1

Experiment [6] deals with CAL-85-1. The method, then: as §1
For experiment [7], the system named is DU-4475. How it is done: (§2)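 DSRT, CellTiter-Blue viability, 72 h incubation. Signal is normalised to DMSO and benzethonium chloride controls. Value is the normalised response at dose 7.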
The source holds these as a separate data set.

In experiment [8] the test system is HDQ-P1. How it is done:
as §2
The source holds these as a separate data set.

The test system of experiment [9] is MDA-MB-453. The method, then: as §2
This is another data set of the same source.

The subject of experiment [10] is CAL-51. How it is done:
as §2
This is another data set of the same source.

The subject of experiment [11] is CAL-148. The method, then:
as §2
The source holds these as a separate data set.

The subject of experiment [12] is CAL-85-1. The method, then: as §2
The source holds these as a separate data set.

The test system of experiment [13] is DU-4475. How it is done: (§3)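 DSRT, CellTiter-Blue viability, 72 h incubation. Signal is normalised to DMSO and benzethonium chloride controls. Value is the normalised response at dose 6.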
This is another data set of the same source.

The subject of experiment [14] is HDQ-P1. The method, then: as §3
The source holds these as a separate data set.

Experiment [15] deals with MDA-MB-453. The method, then:
as §3
This is another data set of the same source.

In experiment [16] the test system is CAL-51. How it is done:
as §3
The source holds these as a separate data set.

Experiment [17] deals with CAL-148. How it is done:
as §3
The source holds these as a separate data set.

The test system of experiment [18] is CAL-85-1. How it is done:
as §3
The source holds these as a separate data set.

With `Cc1c(N)nc([C@H](CC(N)=O)NC[C@H](N)C(N)=O)nc1C(=O)N[C@H](C(=O)N[C@H](C)[C@@H](O)[C@H](C)C(=O)N[C@H](C(=O)NCCc1nc(-c2nc(C(=O)NCCC[S+](C)C)cs2)cs1)[C@@H](C)O)[C@@H](OC1OC(CO)C(O)C(O)C1OC1OC(CO)C(O)C(OC(N)=O)C1O)c1cnc[nH]1` (stereo partly drawn) [Bleomycin] (3000 nM), the normalised viability in the experiment with DU-4475 [1] was determined as 107%; in the experiment with HDQ-P1 [2], 76.5%; in the experiment on MDA-MB-453 [3] it was 101%; with CAL-51 [4] it was 96.5%; in the experiment on CAL-148 [5] it was 88.2%; in the experiment on CAL-85-1 [6] it was 92.7%.
On to `Cc1cc2c(F)c(Oc3ncnn4cc(OC[C@@H](C)O)c(C)c34)ccc2[nH]1` [Brivanib] (300 nM), for which the normalised viability with DU-4475 [1] came out at 98.9%; in the experiment with HDQ-P1 [2] it was 113%; with MDA-MB-453 [3], 99.1%; in the experiment on CAL-51 [4], 93.6%; in the experiment on CAL-148 [5] it was 98.5%; with CAL-85-1 [6], 89.8%.
Consider `CC(C)C[C@H](NC(=O)[C@H](CCc1ccccc1)NC(=O)CN1CCOCC1)C(=O)N[C@@H](Cc1ccccc1)C(=O)N[C@@H](CC(C)C)C(=O)[C@@]1(C)CO1` [Carfilzomib] (300 nM), for which the normalised viability in the experiment with DU-4475 [1] was determined as 1.31%; in the experiment with HDQ-P1 [2], 0.3%; in the experiment with MDA-MB-453 [3] it was 18.1%; with CAL-51 [4] it was 2.56%; in the experiment on CAL-148 [5] it was 1.83%; with CAL-85-1 [6], 2.07%.
In the case of `Nc1nc(Cl)nc2c1ncn2[C@@H]1O[C@H](CO)[C@@H](O)[C@@H]1F` [Clofarabine] (3000 nM), the normalised viability was 19.6% in the experiment with DU-4475 [1]; 95.6% in the experiment with HDQ-P1 [2]; 44.4% in the experiment with MDA-MB-453 [3]; 15.4% in the experiment with CAL-51 [4]; 32.9% in the experiment with CAL-148 [5]; 54.5% in the experiment with CAL-85-1 [6].
Turning to `CCN(CC)CCOc1ccc(C(=C(Cl)c2ccccc2)c2ccccc2)cc1` [Clomifene] (3000 nM), the normalised viability in the experiment with DU-4475 [1] turned out to be 92.4%; with HDQ-P1 [2], 132%; in the experiment with MDA-MB-453 [3] it was 82.8%; in the experiment on CAL-51 [4], 95.4%; with CAL-148 [5] it was 93.3%; in the experiment with CAL-85-1 [6], 106%.
With `C[C@@H]1C[C@H]2[C@@H]3CCC4=CC(=O)C=C[C@]4(C)[C@@]3(F)[C@@H](O)C[C@]2(C)[C@@]1(O)C(=O)CO` [Dexamethasone] (3000 nM), the normalised viability in the experiment on DU-4475 [1] was 100%; with HDQ-P1 [2], 112%; in the experiment on MDA-MB-453 [3], 78.2%; with CAL-51 [4], 106%; in the experiment with CAL-148 [5] it was 93.3%; in the experiment with CAL-85-1 [6] it was 115%.
For the molecule `C[C@@H](CN1CC(=O)NC(=O)C1)N1CC(=O)NC(=O)C1` [Dexrazoxane] (1000 nM), the normalised viability worked out at 83.6% with DU-4475 [7]; 107% in the experiment with HDQ-P1 [8]; 97.8% in the experiment with MDA-MB-453 [9]; 97.4% in the experiment on CAL-51 [10]; 102% in the experiment on CAL-148 [11]; 86.9% in the experiment on CAL-85-1 [12].
Regarding `C[C@@H](CN1CC(=O)NC(=O)C1)N1CC(=O)NC(=O)C1` [Dexrazoxane] (3000 nM), the normalised viability was 92.8% in the experiment with DU-4475 [1]; 98.1% with HDQ-P1 [2]; 87.5% in the experiment with MDA-MB-453 [3]; 83.9% in the experiment with CAL-51 [4]; 96% in the experiment with CAL-148 [5]; 104% in the experiment with CAL-85-1 [6].
As to `CC(C)C(=O)Nc1ccc([N+](=O)[O-])c(C(F)(F)F)c1` [Flutamide] (3000 nM), the normalised viability in the experiment on DU-4475 [1] was 93.2%; in the experiment on HDQ-P1 [2], 98.8%; with MDA-MB-453 [3], 120%; in the experiment with CAL-51 [4] it was 110%; in the experiment with CAL-148 [5], 104%; in the experiment on CAL-85-1 [6] it was 94.9%.
With `COc1cc2c(Oc3ccc(NC(=O)C4(C(=O)Nc5ccc(F)cc5)CC4)cc3F)ccnc2cc1OCCCN1CCOCC1` [Foretinib] (300 nM), the normalised viability in the experiment on DU-4475 [1] came to 98.8%; with HDQ-P1 [2], 60.9%; in the experiment with MDA-MB-453 [3], 75.4%; in the experiment with CAL-51 [4], 68.5%; in the experiment on CAL-148 [5] it was 91.6%; with CAL-85-1 [6], 84%.
As to `NC(=O)NO` [Hydroxyurea] (30000 nM), the normalised viability with DU-4475 [1] is 104%; with HDQ-P1 [2] it was 104%; in the experiment on MDA-MB-453 [3] it was 93.1%; in the experiment with CAL-51 [4] it was 111%; with CAL-148 [5], 103%; in the experiment with CAL-85-1 [6], 89.1%.
For the molecule `O=NN(CCCl)C(=O)NC1CCCCC1` [Lomustine] (300 nM), the normalised viability in the experiment with DU-4475 [13] came to 110%; with HDQ-P1 [14], 84.1%; in the experiment with MDA-MB-453 [15], 112%; in the experiment on CAL-51 [16] it was 105%; in the experiment on CAL-148 [17], 106%; with CAL-85-1 [18], 104%.
Turning to `O=NN(CCCl)C(=O)NC1CCCCC1` [Lomustine] (3000 nM), the normalised viability with DU-4475 [1] turned out to be 89.1%; in the experiment on HDQ-P1 [2] it was 99.7%; with MDA-MB-453 [3], 112%; in the experiment on CAL-51 [4], 113%; in the experiment on CAL-148 [5], 103%; with CAL-85-1 [6] it was 93.8%.
Take `O=C(O)CC[C@H]1CC[C@@](c2cc(F)ccc2F)(S(=O)(=O)c2ccc(Cl)cc2)CC1` [MK-0752] (30 nM): the normalised viability in the experiment with DU-4475 [13] came out at 117%; with HDQ-P1 [14] it was 93%; in the experiment with MDA-MB-453 [15] it was 103%; in the experiment on CAL-51 [16] it was 106%; in the experiment on CAL-148 [17], 115%; with CAL-85-1 [18] it was 100%.
In the case of `O=C(O)CC[C@H]1CC[C@@](c2cc(F)ccc2F)(S(=O)(=O)c2ccc(Cl)cc2)CC1` [MK-0752] (300 nM), the normalised viability with DU-4475 [1] stood at 115%; with HDQ-P1 [2], 114%; in the experiment on MDA-MB-453 [3] it was 114%; in the experiment with CAL-51 [4] it was 119%; with CAL-148 [5], 95.3%; in the experiment with CAL-85-1 [6], 94.6%.
On to `NC1(c2ccc(-c3nc4ccn5c(=O)[nH]nc5c4cc3-c3ccccc3)cc2)CCC1` [MK-2206] (30 nM), for which the normalised viability turned out to be 103% with DU-4475 [13]; 69.6% with HDQ-P1 [14]; 99.4% with MDA-MB-453 [15]; 101% with CAL-51 [16]; 97.4% in the experiment on CAL-148 [17]; 96.2% in the experiment on CAL-85-1 [18].
With `NC1(c2ccc(-c3nc4ccn5c(=O)[nH]nc5c4cc3-c3ccccc3)cc2)CCC1` [MK-2206] (300 nM), the normalised viability in the experiment with DU-4475 [1] was 100%; with HDQ-P1 [2], 77.5%; with MDA-MB-453 [3] it was 73%; in the experiment with CAL-51 [4] it was 98.8%; with CAL-148 [5], 91.3%; in the experiment on CAL-85-1 [6], 82.9%.
Consider `NC(=O)c1cccc2cn(-c3ccc([C@@H]4CCCNC4)cc3)nc12` [MK-4827] (300 nM), for which the normalised viability in the experiment on DU-4475 [13] came out at 73.6%; with HDQ-P1 [14] it was 75.7%; with MDA-MB-453 [15], 106%; in the experiment with CAL-51 [16], 100%; in the experiment on CAL-148 [17], 101%; with CAL-85-1 [18], 96.8%.
